Consider five molecules from ChEMBL document CHEMBL1154583, “Cytotoxic lavandulyl flavanones from Sophora flavescens” (J Nat Prod, 2000).

The subject of this experiment is HL-60. Kind of experiment: Cytotoxicity against human HL60 cells after 96 hrs by MTT assay. Type of experiment: functional, cell-based. As to conditions: for IC50: HL-60, 96 h. For orientation: Tetrazolium dyes change colour on reduction, which living cells bring about.

Usually IC50 stands for the concentration that inhibits the measured activity by half. A low value points to greater potency.

Molecules are shown by their SMILES. Activity calls are given as the source filed them. The calls are words filed in the database; no cut-off is given here.

Turning to `C=C(C)[C@H](CC=C(C)C)Cc1c(O)cc(OC)c2c1O[C@H](c1ccc(O)cc1OC)CC2=O`, half-maximal inhibition (IC50) was put at 13.7 µM.
`COc1ccc(-c2coc3cc(O)ccc3c2=O)cc1`: the outcome was inactive.
The molecule `C=C(C)C(CC=C(C)C)Cc1c(O)cc(OC)c2c1O[C@H](c1ccc(O)cc1O)CC2=O` (stereo not given in full) [KURARINONE] registered an IC50 of 18.5 µM.
As to `Oc1ccc2c(c1)OC[C@H]1c3cc4c(cc3O[C@@H]21)OCO4`, the result was inactive.
Consider `C=C(C)[C@H](CC=C(C)C)Cc1c(O)cc(O)c2c1O[C@H](c1ccc(O)cc1O)CC2=O` [SOPHORAFLAVANONE G], for which the half-maximal inhibitory concentration (IC50) stood at 12.5 µM.
